Test results from patent US10167262B2, “Herbicidal substituted 3-arylpyrazoles” (FMC CORPORATION, priority 2014, dated 2019).

How the values were obtained:
Format in all cases: in vivo
[1] = tested on: chickweed (common chickweed, Stellaria media); test: Test C postemergence greenhouse test, plant response rating 0-100; details: for Plant response rating, Chickweed: scale 0 to 100
How it was run: (§1)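 Plants rated visually 0 (no effect) to 100 (complete control) against untreated controls after 13 to 15 days in the greenhouse, dash indicating no result. Treatment was a postemergence application of formulated chemicals at the 1- to 4-leaf stage (2 to 18 cm), in pots of peat-vermiculite medium.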

kochia (Kochia scoparia) = test: as above; details: for Plant response rating, Kochia: scale 0 to 100
How it was run: as §1

wild oat (Avena fatua) = test: as above; details: for Plant response rating, Oat, Wild: scale 0 to 100
How it was run: as §1

soybean (Glycine max) = test: Test C pre-/postemergence greenhouse test, plant response rating 0-100; details: Postemergence; for Plant response rating, Soybean: scale 0 to 100
How it was run: (§2)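 Visual rating vs controls after 13–15 d greenhouse; 0 = no effect, 100 = complete control. Pre: seeds in loam/sand, treated at planting. Post: seedlings 2–18 cm (1–4 leaf) in peat-based mix. Compounds in surfactant-containing non-phytotoxic solvent.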

[2] = tested on: pigweed (Amaranthus retroflexus); test: as above; details: Postemergence
How it was run: as §2

[3] = tested on: johnsongrass (Sorghum halepense); test: as above; details: Postemergence; for Plant response rating, Johnsongrass: scale 0 to 100
How it was run: as §2

[4] = tested on: giant foxtail (Setaria faberii); test: as above; details: Postemergence; for Plant response rating, Foxtail, Giant: scale 0 to 100
How it was run: as §2

corn (Zea mays) = test: as above; details: Postemergence, 500 g ai/ha; scale 0 to 100
How it was run: as §2

[5] = tested on: lambsquarters (Chenopodium album); test: as above; details: Postemergence; for Plant response rating, Lambsquarters: scale 0 to 100
How it was run: as §2

[6] = tested on: winter wheat (Triticum aestivum); test: as above; details: Postemergence; for Plant response rating, Wheat: scale 0 to 100
How it was run: as §2

[7] = tested on: morningglory (Ipomoea coccinea); test: as above; details: Postemergence; for Plant response rating, Morningglory: scale 0 to 100
How it was run: as §2

[8] = tested on: velvetleaf (Abutilon theophrasti); test: as above; details: Postemergence; for Plant response rating, Velvetleaf: scale 0 to 100
How it was run: as §2

[9] = tested on: blackgrass (Alopecurus myosuroides); test: as above; details: Postemergence; for Plant response rating, Blackgrass: scale 0 to 100
How it was run: as §2

Cn1cc(C(=O)c2cccs2)c(-c2cc(Cl)cc(Cl)c2)n1 [Compound 17]
Plant response rating (0 to 100), Chickweed ([1]; 62 g ai/ha): 10
Plant response rating (0 to 100), Chickweed ([1]; 125 g ai/ha): 65
Plant response rating, Chickweed ([1]; 250 g ai/ha): 85
Plant response rating, Chickweed ([1]; 500 g ai/ha): 85
Plant response rating (0 to 100), Kochia (kochia (Kochia scoparia); 62 g ai/ha): 30
Plant response rating (0 to 100), Kochia (kochia (Kochia scoparia); 125 g ai/ha): 50
Plant response rating, Kochia (kochia (Kochia scoparia); 250 g ai/ha): 50
Plant response rating, Kochia (kochia (Kochia scoparia); 500 g ai/ha): 55
Plant response rating (0 to 100), Oat, Wild (wild oat (Avena fatua); 62 g ai/ha): 0
Plant response rating (0 to 100), Oat, Wild (wild oat (Avena fatua); 125 g ai/ha): 0
Plant response rating, Oat, Wild (wild oat (Avena fatua); 250 g ai/ha): 0
Plant response rating, Oat, Wild (wild oat (Avena fatua); 500 g ai/ha): 0
Plant response rating (0 to 100), Soybean (soybean (Glycine max); 62 g ai/ha): 0
Plant response rating (0 to 100), Soybean (soybean (Glycine max); 125 g ai/ha): 0
Plant response rating, Soybean (soybean (Glycine max); 250 g ai/ha): 10
Plant response rating, Soybean (soybean (Glycine max); 500 g ai/ha): 15
Plant response rating (0 to 100), Pigweed ([2]; 62 g ai/ha): 75
Plant response rating (0 to 100), Pigweed ([2]; 125 g ai/ha): 80
Plant response rating, Pigweed ([2]; 500 g ai/ha, scale 0 to 100): 85
Plant response rating (0 to 100), Johnsongrass ([3]; 62 g ai/ha): 0
Plant response rating (0 to 100), Johnsongrass ([3]; 125 g ai/ha): 0
Plant response rating, Johnsongrass ([3]; 250 g ai/ha): 10
Plant response rating, Johnsongrass ([3]; 500 g ai/ha): 15
Plant response rating (0 to 100), Foxtail, Giant ([4]; 62 g ai/ha): 0
Plant response rating (0 to 100), Foxtail, Giant ([4]; 125 g ai/ha): 0
Plant response rating, Foxtail, Giant ([4]; 250 g ai/ha): 5
Plant response rating, Foxtail, Giant ([4]; 500 g ai/ha): 10
Plant response rating, Corn (corn (Zea mays)): 10
Plant response rating (0 to 100), Lambsquarters ([5]; 62 g ai/ha): 15
Plant response rating (0 to 100), Lambsquarters ([5]; 125 g ai/ha): 55
Plant response rating, Lambsquarters ([5]; 250 g ai/ha): 80
Plant response rating, Lambsquarters ([5]; 500 g ai/ha): 98
Plant response rating (0 to 100), Wheat ([6]; 62 g ai/ha): 0
Plant response rating (0 to 100), Wheat ([6]; 125 g ai/ha): 0
Plant response rating, Wheat ([6]; 250 g ai/ha): 0
Plant response rating, Wheat ([6]; 500 g ai/ha): 0
Plant response rating (0 to 100), Morningglory ([7]; 62 g ai/ha): 5
Plant response rating (0 to 100), Morningglory ([7]; 125 g ai/ha): 5
Plant response rating, Morningglory ([7]; 250 g ai/ha): 10
Plant response rating, Morningglory ([7]; 500 g ai/ha): 15
Plant response rating (0 to 100), Velvetleaf ([8]; 62 g ai/ha): 80
Plant response rating (0 to 100), Velvetleaf ([8]; 125 g ai/ha): 80
Plant response rating, Velvetleaf ([8]; 250 g ai/ha): 80
Plant response rating, Velvetleaf ([8]; 500 g ai/ha): 80
Plant response rating (0 to 100), Blackgrass ([9]; 62 g ai/ha): 0
Plant response rating, Blackgrass ([9]; 125 g ai/ha): 0
Plant response rating, Blackgrass ([9]; 250 g ai/ha): 0
Plant response rating, Blackgrass ([9]; 500 g ai/ha): 5
